Assay results as given in article PMC11413853, “Discovery of VU6007496: Challenges in the Development of an M1 Positive Allosteric Modulator Backup Candidate” (ACS Chemical Neuroscience, 2024).
Read-outs that look alike come from different tables or passages of the source.

Columns and labels:
[1] = In vivo rat MET ID (plasma)
Method: The team was still puzzled by the severe cholinergic adverse events observed in rats at the 100 and 300 mg/kg arms of the dose escalation study, as this was not consistent with the past 20 years of M1 PAM research. Could the N-demethylated metabolite A (24) be responsible? Due to the disconnect between liver S9 and hepatocytes, we felt it was prudent to examine in vivo rat MET ID at doses of 100 and 300 mg/kg to ensure 24 is produced upon in vivo oral dosing after 5–30 min and 160–240 min, and to determine if any other putative metabolites are generated at detectable levels (Figure 10). Across both doses and time points, 73–81% of the parent 11 remained. Metabolite 24 was produced in vivo at 2.2 to 5.6% relative abundance and lower than from in vitro incubations, along with two oxidative metabolites, a dioxygenated species M461 (26) and a mono-oxygenated species M445 (27) on the tetrahydropyranyl moiety. […] A species such as 27 would resemble the hydroxy pyranyl congeners known to be potent ago-PAMs and prone to severe cholinergic side effects, and the potential for 24 to elicit similar cholinergic toxicity was unknown.

[2] = Rat IV plasma:brain level cassette; assay type: in vivo; conditions: male, 0.25 mg/kg; for concentration at 15 min: Sprague Dawley; for Kp uu at 0.25 h / Kp at 0.25 h: Sprague-Dawley, brain and plasma, 15 min; for Kp at 0.25 h: brain:plasma
Method: PAMs 11 and 12 were next evaluated in our rat IV plasma: brain level cassette paradigm (0.25 mg/kg compound, 1 mg/kg total dose, 10.1% EtOH:40.4% PEG400:49.5% DMSO) sampled at a set 15 min time point to assess CNS penetration. […] As mice are the most sensitive species to cholinergic mechanisms,[11],[13],[23],[24] we placed a high-throughput phenotypic seizure liability assay into the work-flow in which potent ago-PAMs, such as 2–5,[8]−[15] display robust Racine scale 4/5 behavioral convulsions that develop within minutes of dosing and last for the 3 h duration of the study. […] In parallel, we performed electrophysiology studies in mouse native tissue layer V medial prefrontal cortex (mPFC). […] Thus, both compounds cleared the major hurdles of CNS penetration and the liability of M1 overstimulation. […]
LC/MS/MS Bioanalysis of Samples from Plasma Protein Binding and Intrinsic Clearance […]
Samples were analyzed on a Thermo Electron TSQ Quantum Ultra triple quad mass spectrometer (San Jose, CA) via electrospray ionization (ESI) with two Themo Electron Accella pumps (San Jose, CA), and a Leap Technologies CTC PAL autosampler (Carrboro, NC). Analytes were separated by gradient elution on a dual column system with two Thermo Hypersil Gold (2.1 x 30 mm, 1.9 µm) columns (San Jose, CA) thermostated at 40 °C. HPLC mobile phase A was 0.1% formic acid in water and mobile phase B was 0.1% formic acid in acetonitrile. The gradient started […]
for 0.2 min; returned to 10% B in 0.1 min. The total run time was 1.3 min and the HPLC flow rate was 0.8 mL/min. While pump 1 ran the gradient method, pump 2 equilibrated the alternate column isocratically at 10% B. Compound optimization, data collection, and processing was performed using Thermo Electron's QuickQuan software (v2.3) and Xcalibur (v2.0.7 SP1).
In vivo DMPK experimental:
Determination of brain to plasma ratio:
All animal study procedures were approved by the Institutional Animal Care and Use Committee and were conducted in accordance with the National Institutes of Health regulations of animal care covered in Principles of Laboratory Animal Care (National Institutes of Health). All rats were fasted overnight prior to testing.
For determination of the brain over plasma ratio (Kp), compounds were formulated in 8% ethanol, 32% PEG400 and 60% DMSO (v/v/v) and administered as a single 0.2 mg/kg IV dose (1 mL/kg) to male, Sprague Dawley rats (n = 1) via injection into a surgically-implanted jugular vein catheter. At 15 min post dosing, blood sample was collected into chilled, K2EDTA anticoagulant-fortified tube and immediately placed on wet ice. The blood sample was then centrifuged (1700 rcf, 5 minutes, 4 °C) to obtain plasma sample. At the same post-administration time point, whole brain sample was obtained by rapid dissection, rinsed with PBS, and immediately frozen in individual tissue collection box (dry ice). All brain and plasma samples were stored at -80 °C until […]
Sample Analysis: Concentrations in plasma and brain homogenates were quantified by liquid chromatography tandem mass spectrometry (LC-MS/MS). Whole brains were homogenized in 3 mL of 70:30 IPA:water in a mini bead beater for 3 min, and centrifuged at 3,500 g for 5 min. 5 uL of the supernatant was diluted in 15 uL of blank plasma for quantification of the analytes. Plasma samples were centrifuged at 3,500 g for 5 min. A standard curve was generated by diluting the analytes DMSO stocks with blank plasma to obtain a final concentration of 10,000 ng/ml followed by a serial dilution down to 0.5 ng/ml. Quality controls were generated by a serial dilution of the 5,000 ng/ml standard curve solution in blank plasma to obtain 3 concentrations of 500, 50, and 5 ng/ml. 20 uL of brain diluted in plasma, plasma, blank plasma, standard curve and QC samples were loaded in a V-bottom 96-well plate. 120 uL of acetonitrile containing 0.05 uM carbamazepine (internal standard) was added to each well and the plate was centrifuged at 3,500 g for 5 min. 60 […]

4-strain Ames = 4-strain Ames assay; conditions: with and without S9
[3] = brain, read-out: brain concentration
[4] = plasma, read-out: plasma concentration

Compound	Relative Abundance (%) ([1]; 11 dosed 100mg, 5-30 min)	Relative Abundance (%) ([1]; 11 dosed 100mg, 60-240 min)	Relative Abundance (%) ([1]; 11 dosed 300mg, 5-30 min)	Relative Abundance (%) ([1]; 11 dosed 300mg, 160-240 min)	concentration at 15 min [2, 3] [ng/g]	concentration at 15 min [2, 4] [ng/mL]	Kp uu at 0.25 h [2]	Kp at 0.25 h [2]	Ames result (4-strain Ames)
Cn1ccc2nc(C(=O)NC3CCOCC3)cc(Cc3ccc(-c4cc[nH]n4)cc3)c21 [compound 24]	2.2	5.6	1.7	3.2					
Cn1ccc(-c2ccc(Cc3cc(C(=O)NC4CCOCC4)nc4ccsc34)cc2)n1 [compound 12]					120	105	0.7	1.1	negative
Cn1ccc(-c2ccc(Cc3cc(C(=O)NC4CCOCC4)nc4ccn(C)c34)cc2)n1 [compound 11]	81.0	74.0	79.4	73.1	39	92.2	0.36	0.42	negative
